Common to all, as to assay type: ADME, organism-based
Data set [1] is described as follows: The pharmacokinetics of Telithromycin evaluated after administration of single 800-mg doses to healthy adult subjects. On the set-up: dose 800 mg, route oral. Particulars: human, in vivo, dosed compound id 4, dosed compound name TELITHROMYCIN, gender adult male and female, regimen Single dose, tissue Plasma.
Data set [2] is described as follows: The pharmacokinetics of Telithromycin evaluated after administration of multiple 800-mg doses to healthy adult subjects. The following applies: human, in vivo, dosed compound id 4, dosed compound name TELITHROMYCIN, gender adult male and female, regimen Multiple dose, tissue Plasma. On the set-up: dose 800 mg, route oral.
The nature of data set [3]: (§1) The pharmacokinetics of Telithromycin evaluated after administration of Ketek to subjects. The following applies: human, in vivo; dosed compound id 4, dosed compound name TELITHROMYCIN, route oral, tissue Feces; read-out: Excretion.
The next data set deals with Homo sapiens. The description is as §1. Particulars: in vivo, po, dosed compound id 4, dosed compound name TELITHROMYCIN, tissue Urine.
Setting [4] is: po, 800 mg, read-out: AUC(0-24).

As for `CC[C@H]1OC(=O)[C@H](C)C(=O)[C@H](C)[C@@H](O[C@@H]2O[C@H](C)C[C@H](N(C)C)[C@H]2O)[C@](C)(OC)C[C@@H](C)C(=O)[C@H](C)[C@H]2N(CCCCn3cnc(-c4cccnc4)c3)C(=O)O[C@]12C` [TELITHROMYCIN], the highest concentration (Cmax) – broadly, the peak of the concentration-time curve – is 1900 ng/mL in data set [1] (po, 800 mg) and 2270 ng/mL in data set [2] (po, 800 mg). Also, the AUC (as a rule, the area under the concentration-time curve, a measure of exposure) worked out at 8250 ng·h/mL in data set [1] (setting [4]) and 12500 ng·h/mL in data set [2] (setting [4]). The Tmax (as a rule, the time from dosing to the highest level) in data set [1] (dose 800 mg, route oral) was determined as 1 h; in data set [2] (dose 800 mg, route oral), 1 h. Further, the half-life – broadly, the time needed for the level to fall by half in the phase considered – in data set [1] (dose 800 mg, route oral) was 7.16 h; in data set [2] (dose 800 mg, route oral), 9.81 h. Besides, the concentration at 24 h in data set [1] (dose 800 mg, route oral, read-out: C(24h)) came to 30 ng/mL. For the same compound, the dose excreted in data set [3] worked out at 7%. This compound also yielded an Excretion in the data set with Homo sapiens of 13%.

The values above are taken from ChEMBL document CHEMBL3832548, “DailyMed|setid=ba1cca98-f350-4655-88e3-6ef990779fb9 | KETEK - telithromycin tablet, film coated|Physicians Total Care, Inc”.
